System: Erysiphe graminis f.sp. tritici
Assay: Erysiphe graminis f.sp. tritici (wheat powdery mildew) leaf disk assay
Assay type: in vivo
Settings: Blumeria graminis, foliar, 96 h, preventive, four days after inoculation, read-out: control of fungal infection, Erysiphe graminis fsp. tritici

| SMILES | pest or weed control at 200 ppm [%] |
| --- | --- |
| CCc1ncnc(N2C3CCC2CC(=NOCc2cc(F)cc(C(F)(F)F)c2)C3)c1Cl [Example 5.96] | ≥ 80 |
| CC(C)(C)CC(C)(C)c1ccc(OC2C[C@H]3CC[C@@H](C2)N3c2ncnc3sccc23)cc1 (stereo partly drawn) [Example 2.35] | ≥ 80 |
| CCc1ncnc(N2[C@@H]3CC[C@H]2CC(Oc2cc(Cl)c(Cl)cc2Cl)C3)c1Cl (stereo partly drawn) [Example 1.196] | ≥ 80 |
| CCc1ncnc(N2[C@@H]3CC[C@H]2CC(Oc2ccccc2-c2nnc(C(C)(C)C)o2)C3)c1Cl (stereo partly drawn) [Example 2.190] | ≥ 80 |
| CCc1ncnc(N2[C@@H]3CC[C@H]2CC(Oc2ccc(Br)cc2C(C)=O)C3)c1Cl (stereo partly drawn) [Example 2.182] | ≥ 80 |
| CCCCCCOc1ccc(OC2C[C@H]3CC[C@@H](C2)N3c2ncnc(CC)c2Cl)cc1 (stereo partly drawn) [Example 1.140] | ≥ 80 |
| CCc1ncnc(N2C3CCC2CC(=NOc2cc(Cl)nc(Cl)n2)C3)c1Cl [Example 5.71] | ≥ 80 |
| CCc1ncnc(N2[C@@H]3CC[C@H]2CC(Oc2ccc(Br)cc2C)C3)c1Cl (stereo partly drawn) [Example 1.180] | ≥ 80 |
| CCc1ncnc(C(C)c2ncnc(N3C4CCC3CC(=NOCc3ccccc3)C4)c2Cl)c1Cl (stereo not drawn) [Example 5.77] | ≥ 80 |
| CCc1ncnc(N2C3CCC2CC(=NOCc2ccc(C(C)(C)C)cc2)C3)c1Cl [Example 5.26] | ≥ 80 |
| Cc1nsc(N2[C@@H]3CC[C@H]2CC(Oc2ccc(C(F)(F)F)cn2)C3)n1 (stereo partly drawn) [Example 2.203] | ≥ 80 |
| Cn1nc(C(F)(F)F)c(Cl)c1C(=O)N1[C@@H]2CC[C@H]1CC(Oc1cc(C(F)(F)F)ccn1)C2 (stereo partly drawn) [Example 2.220] | ≥ 80 |
| CCc1ncnc(N2[C@@H]3CC[C@H]2CC(Oc2ccccc2C(F)(F)F)C3)c1Cl (stereo partly drawn) [Example 2.146] | ≥ 80 |
| CSc1ccc(OC2C[C@H]3CC[C@@H](C2)N3c2ncnc3sccc23)cc1C (stereo partly drawn) [Example 2.41] | ≥ 80 |
| CCc1ncnc(N2[C@@H]3CC[C@H]2CC(Oc2ccc(C(=O)c4ccccc4)cc2)C3)c1Cl (stereo partly drawn) [Example 2.141] | ≥ 80 |
| c1cncc(CON=C2CC3CCC(C2)N3c2ncnc3sccc23)c1 [Example 5.133] | ≥ 80 |
| c1ccc(-c2nnco2)c(OC2C[C@H]3CC[C@@H](C2)N3c2ncnc3sccc23)c1 (stereo partly drawn) [Example 2.68] | ≥ 80 |
| Clc1ccc(Oc2cccc(OC3C[C@H]4CC[C@@H](C3)N4c3ncnc4sccc34)c2)cc1 (stereo partly drawn) [Example 2.15] | ≥ 80 |
| CN(C)c1cc(C(F)(F)F)nc(ON=C2CC3CCC(C2)N3c2ncnc3sccc23)n1 [Example 5.130] | ≥ 80 |
| Cc1nc(ON=C2CC3CCC(C2)N3c2ncnc3sccc23)cc(N(C)C)n1 [Example 5.209] | ≥ 80 |
| COc1cc(OC2C[C@H]3CC[C@@H](C2)N3c2ncnc3sccc23)cc(OC)c1OC (stereo partly drawn) [Example 1.13] | ≥ 80 |
| CCc1ncnc(N2C3CCC2CC(=NOCc2c4ccccc4cc4ccccc24)C3)c1Cl [Example 5.9] | ≥ 80 |
| CCc1ncnc(N2C3CCC2CC(=NOCc2cc(F)ccc2C(F)(F)F)C3)c1Cl [Example 5.101] | ≥ 80 |
| Fc1c(F)c(F)c(OC2C[C@H]3CC[C@@H](C2)N3c2ncnc3sccc23)c(F)c1F (stereo partly drawn) [Example 2.38] | ≥ 80 |

| SMILES | pest or weed control at 200 ppm [%] |
| --- | --- |
| CCCON=C1CC2CCC(C1)N2c1ccnc2c1c(C)nn2C [Example 5.244] | ≥ 80 |
| FC(F)(F)c1ccnc(OC2C[C@H]3CC[C@@H](C2)N3c2ccnc3cc(Cl)ccc23)c1 (stereo partly drawn) [Example 2.192] | ≥ 80 |
| CCc1nc(Cl)c(CC)c(ON=C2CC3CCC(C2)N3c2ncnc3sccc23)n1 [Example 5.194] | ≥ 80 |
| CCC(C)c1cccc(C(C)CC)c1OC1C[C@H]2CC[C@@H](C1)N2c1ncnc2sccc12 (stereo partly drawn) [Example 2.46] | ≥ 80 |
| CCOc1cc(C)ccc1OC1C[C@H]2CC[C@@H](C1)N2c1ncnc(CC)c1Cl (stereo partly drawn) [Example 2.126] | ≥ 80 |
| Cc1ccc(OC2C[C@H]3CC[C@@H](C2)N3c2ncnc3sccc23)cc1 (stereo partly drawn) [Example 2.8] | ≥ 80 |
| CCc1ncnc(N2C3CCC2CC(=NOCc2cc(F)c(F)c(C(F)(F)F)c2)C3)c1Cl [Example 5.103] | ≥ 80 |
| Cc1ccc(-c2c(C)cccc2C)c(C)c1OC1C[C@H]2CC[C@@H](C1)N2c1ncnc2sccc12 (stereo partly drawn) [Example 2.49] | ≥ 80 |
| CCc1ncnc(N2[C@@H]3CC[C@H]2CC(Oc2ccc(C)cc2)C3)c1Cl (stereo partly drawn) [Example 1.162] | ≥ 80 |
| CC(=O)c1cc(Cl)c2ccccc2c1OC1C[C@H]2CC[C@@H](C1)N2c1ncnc2sccc12 (stereo partly drawn) [Example 2.59] | ≥ 80 |
| FC(F)(F)c1cc(CON=C2CC3CCC(C2)N3c2ncnc3sccc23)cc(C(F)(F)F)c1 [Example 5.186] | ≥ 80 |
| COc1ccccc1OC1C[C@H]2CC[C@@H](C1)N2c1ncnc2sccc12 (stereo partly drawn) [Example 2.4] | ≥ 80 |
| CCCCCCCCC1COC2(CC3CCC(C2)N3c2ncnc3sccc23)O1 (stereo not drawn) [Example 6.1] | ≥ 80 |
| N#Cc1ccc(OC2C[C@H]3CC[C@@H](C2)N3c2ncnc3sccc23)cc1 (stereo partly drawn) [Example 2.22] | ≥ 80 |
| c1cc(OC2C[C@H]3CC[C@@H](C2)N3c2ncnc3sccc23)ccn1 (stereo partly drawn) [Example 2.7] | ≥ 80 |
| Cc1c(Cl)ncnc1N1[C@@H]2CC[C@H]1CC(Oc1cccc(C(F)(F)F)n1)C2 (stereo partly drawn) [Example 2.94] | ≥ 80 |
| CC(C)(C)c1ccc(OC2C[C@H]3CC[C@@H](C2)N3c2ncnc3sccc23)cc1 (stereo partly drawn) [Example 2.26] | ≥ 80 |
| CCc1ncnc(N2C3CCC2CC(=NOCc2ccc(Cl)c(Cl)c2)C3)c1Cl [Example 5.52] | ≥ 80 |
| CCc1ncnc(N2C3CCC2CC(=NOc2nc(N(C)C)cc(C(F)(F)F)n2)C3)c1Cl [Example 5.72] | ≥ 80 |
| CCc1ncnc(N2C3CCC2CC(=NOc2cc(C)nc(SC)n2)C3)c1Cl [Example 5.94] | ≥ 80 |
| CCc1ncnc(N2[C@@H]3CC[C@H]2CC(Oc2ccc(C4CCc5ccccc54)cc2)C3)c1Cl (stereo partly drawn) [Example 2.173] | ≥ 80 |
| Fc1ccc(OC2C[C@H]3CC[C@@H](C2)N3c2ncnc3sccc23)cc1 (stereo partly drawn) [Example 2.11] | ≥ 80 |
| CCc1ncnc(N2[C@@H]3CC[C@H]2CC(Oc2c(C(C)=O)cc(Cl)c4ccccc24)C3)c1Cl (stereo partly drawn) [Example 2.187] | ≥ 80 |
| Cc1c(CON=C2CC3CCC(C2)N3c2ncnc3sccc23)ccc2ccccc12 [Example 5.176] | ≥ 80 |

| SMILES | pest or weed control at 200 ppm [%] |
| --- | --- |
| c1nc(C2C[C@H]3CC[C@@H](C2)N3c2ncnc3sccc23)c2ccsc2n1 (stereo partly drawn) [Example 2.28] | ≥ 80 |
| CCc1ncnc(N2[C@@H]3CC[C@H]2CC(Oc2ccc(C(C)(C)C)cc2C(C)(C)C)C3)c1Cl (stereo partly drawn) [Example 1.221] | ≥ 80 |
| CCc1ncnc(N2C3CCC2CC(=NOc2nc(SC)nc(Cl)c2-c2ccccc2)C3)c1Cl [Example 5.125] | ≥ 80 |
| CCc1ncnc(N2[C@@H]3CC[C@H]2CC(Oc2ccc(Oc4nc(C)ns4)cc2)C3)c1Cl (stereo partly drawn) [Example 2.91] | ≥ 80 |
| Cc1ccc(C(C)(C)C)c(OC2C[C@H]3CC[C@@H](C2)N3c2ncnc3sccc23)c1 (stereo partly drawn) [Example 2.43] | ≥ 80 |
| CCc1ncnc(N2C3CCC2CC(=NOCc2cc(Cl)ccc2Cl)C3)c1Cl [Example 5.62] | ≥ 80 |
| ClCc1cccc(CON=C2CC3CCC(C2)N3c2ncnc3sccc23)c1 [Example 5.200] | ≥ 80 |
| CCc1ncnc(N2[C@@H]3CC[C@H]2CC(Oc2cccc(C(F)(F)F)c2F)C3)c1Cl (stereo partly drawn) [Example 2.148] | ≥ 80 |
| CCc1ncnc(C(C)c2ncnc(N3C4CCC3CC(=NOCc3ccc(F)cc3)C4)c2Cl)c1Cl (stereo not drawn) [Example 5.102] | ≥ 80 |
| Cc1nsc(Oc2ccc(OC3C[C@H]4CC[C@@H](C3)N4c3ncnc4scc(C)c34)cc2)n1 (stereo partly drawn) [Example 2.72] | ≥ 80 |
| CCc1ncnc(N2C3CCC2CC(=NOCc2cccc(OC(F)(F)F)c2)C3)c1Cl [Example 5.75] | ≥ 80 |
| CCc1ncnc(N2[C@@H]3CC[C@H]2CC(Oc2cccc(Oc4nc(C)ns4)c2)C3)c1Cl (stereo partly drawn) [Example 2.89] | ≥ 80 |
| CCc1ncnc(N2[C@@H]3CC[C@H]2CC(Oc2ccc(C(C)(C)c4ccc(O)cc4)cc2)C3)c1Cl (stereo partly drawn) [Example 2.131] | ≥ 80 |
| COCc1ncnc(N2[C@@H]3CC[C@H]2CC(Oc2cc(C(F)(F)F)ccn2)C3)c1OC (stereo partly drawn) [Example 2.152] | ≥ 80 |
| c1ccc2c(c1)CCC2c1ccc(OC2C[C@H]3CC[C@@H](C2)N3c2ncnc3sccc23)cc1 (stereo partly drawn) [Example 2.53] | ≥ 80 |
| COc1ccc(OC2C[C@H]3CC[C@@H](C2)N3c2ncnc3sccc23)c(Cl)c1 (stereo partly drawn) [Example 2.16] | ≥ 80 |
| COc1nc(-c2ccc(C)cc2)nc(ON=C2CC3CCC(C2)N3c2ncnc3sccc23)c1C [Example 5.251] | ≥ 80 |
| C#CCON=C1CC2CCC(C1)N2c1ncnc(C(C)c2ncnc(CC)c2Cl)c1Cl (stereo not drawn) [Example 5.49] | ≥ 80 |
| CCc1ncnc(N2[C@@H]3CC[C@H]2CC(Oc2ccc(OC)cc2Cl)C3)c1Cl (stereo partly drawn) [Example 2.142] | ≥ 80 |
| CC(C)(C)c1ccc(OC2C[C@H]3CC[C@@H](C2)N3c2ncnc3sccc23)c(C(C)(C)C)c1 (stereo partly drawn) [Example 2.45] | ≥ 80 |
| CCc1ncnc(N2C3CCC2CC(=NOCc2cc(Br)cc(Br)c2)C3)c1Cl [Example 5.53] | ≥ 80 |
| Fc1cccc(OC2C[C@H]3CC[C@@H](C2)N3c2ncnc3sccc23)c1F (stereo partly drawn) [Example 2.24] | ≥ 80 |
| FC(F)(F)c1ccc(Cl)c(CON=C2CC3CCC(C2)N3c2ncnc3sccc23)c1 [Example 5.195] | ≥ 80 |
| CCc1ncnc(N2[C@@H]3CC[C@H]2CC(Oc2cccc(F)c2)C3)c1Cl (stereo partly drawn) [Example 2.117] | ≥ 80 |

— patent publication US20100331348A1, “TROPANE DERIVATIVES USEFUL AS PESTICIDES” (SYNGENTA CROP PROTECTION, INC., priority 2007, published 2010)
